Source: patent US12582631B2, “Methods of improving renal function” (Chinook Therapeutics, Inc., priority 2019, dated 2026)
“Also recorded” adds a separate entry of the source. Where two headings read alike, the source gives them in different places. One block for each molecule: values may come before it. Positions of bridges follow the written chain, without caps; N, C: chain ends. No end group written: not given here.

What was measured:
[1] = test system: IL-6 production in primary human renal mesangial cells (HRMCs); experiment: ET-1 induced IL-6 production in HRMCs (ELISA); assay type: cell-based; details: for IC50: Homo sapiens, Mesangial cell, read-out: IC50, ET-1 stimulated IL-6 production
[2] = test system: canonical signaling pathways in kidney tissue of g-ddY mice; experiment: Ingenuity Pathway Analysis (IPA) of canonical pathways, g-ddY kidney RNA-seq; assay type: in vivo, mouse; details: 30 mg/kg/day
[3] = test system: hallmark gene sets in kidney tissue of g-ddY mice; experiment: Gene Set Enrichment Analysis (GSEA) of hallmark gene sets, g-ddY kidney RNA-seq; assay type: in vivo, mouse
[4] = test system: primary human renal mesangial cells (HRMCs); experiment: Proliferation (BrdU) of HRMCs stimulated with IgA-containing immune complexes from IgAN patients; assay type: cell-based; details: HRMCs treated with IgA containing serum fractions from healthy controls
g-ddY mice = experiment: UACR (albuminuria) in g-ddY mouse model of IgA nephropathy; assay type: in vivo; details: approximately 5 days
Text: The grouped ddY (g-ddY) mouse is a spontaneous model of early-onset IgA nephropathy characterized by IgA immune complex deposition in the mesangium of the kidney, leading to significant proteinuria, glomerular hypercellularity, mesangioproliferative glomerular lesions, glomerular sclerosis and reduced kidney function, all hallmarks of human IgA nephropathy (J Am Soc Nephrol 23: 1364-1374, 2012). Consistent with human IgA nephropathy, the mesangial IgA deposits in the g-ddY mouse are also accompanied by deposition of IgG and complement C3.

[5] = test system: gene expression in kidney tissue of g-ddY mice; experiment: RNA-seq differential gene expression in kidney tissue of g-ddY mice (edgeR); assay type: in vivo, mouse
Method: RNA isolation and sequencing libraries were generated using standard protocols. Sequencing was performed using an Illumina NextSeq500 using manufacturer's instructions with a read length of 75 bp and a read depth of 30 million. Raw data was assembled to FASTQ files. Following QC analysis, high quality sequencing reads (e.g., reads with a Phred quality score >36) were aligned to the mouse reference genome (GRCm38-mm10) using the default parameters of the align algorithm and transcript count tables of each library was generated using the default parameters of the featureCounts algorithm of the RSubread package (Liao […], Shi W, 2019). High quality sequencing reads mapped to 27,129 genes. Following additional QC of low count filtering (i.e. transcripts <10 counts across all samples), 16,207 genes were identified and used for further analysis. The remaining sequencing read counts of the included 16,207 genes were normalized to library size, log-transformed, and were quantified as counts per million (CPM). Select RNA-seq counts were validated using qPCR. Sequencing read counts (CPM) were used for identification of differential gene expression between specified populations using the quasi-likelihood methodology of the edgeR package. […] MA plots were generated using edgeR. Heatmaps and other plots were generated using the gplots and ggplot2 package.

ET-1 stimulated HRMC = experiment: Hallmark gene set enrichment in ET-1 stimulated HRMC treated with atrasentan; assay type: cell-based, human; details: atrasentan at 1 nM and 25 nM

IC50 ([1]; 48 h, 10 ng/mL ET-1, 48 hours): ~1 nM | IC50 ([1]; 72 h, 10 ng/mL ET-1, 72 hours): ~1 nM
Molecule: CCCCN(CCCC)C(=O)CN1C[C@H](c2ccc3c(c2)OCO3)[C@@H](C(=O)O)[C@@H]1c1ccc(OC)cc1 [atrasentan, (2R,3R,4S)-4-(1,3-benzodioxol-5-yl)-1-[2-(dibutylamino)-2-oxoethyl]-2-(4-methoxyphenyl)pyrrolidine-3-carboxylic acid]
NF-κB signaling [2]: reduced NF-κB signaling | PDGF signaling [2]: reduced PDGF signaling | IL-6 signaling ([3]; 30 mg/kg/day): reduced IL-6 signaling | cell proliferation associated signaling (mitotic spindle and G2M checkpoint) ([3]; 30 mg/kg/day): reduced cell proliferation associated signaling | inflammatory response signaling ([3]; 30 mg/kg/day): reduced inflammatory response signaling | NES of hallmark signaling pathways (TNFα signaling via NF-κB, epithelial mesenchymal transition, inflammatory response, IL6-JAK-STAT3 signaling, mitotic spindle, G2M checkpoint) ([3]; 10, 20, and 30 mg/kg/day, adjusted p-value <0.05): < −1.5 | basal cell proliferation [4]: had no effect on basal cell proliferation | reduction of UACR from baseline (g-ddY mice; 20 mg/kg/day in drinking water): > 60% | albuminuria compared to baseline (paired t-test) (g-ddY mice; 20 mg/kg/day): reduced from baseline to a similar extent | effect on UACR compared to control group (un-paired t-test) (g-ddY mice; 20 mg/kg/day): statistically significant compared to the control group; also recorded: significantly reduced albuminuria | reduction of UACR from baseline (g-ddY mice; 30 mg/kg/day in drinking water): > 60% | albuminuria compared to baseline (paired t-test) (g-ddY mice; 30 mg/kg/day): reduced albuminuria from baseline | effect on UACR compared to control group (un-paired t-test) (g-ddY mice; 30 mg/kg/day): statistically significant compared to the control group; also recorded: significantly reduced albuminuria | differentially expressed genes of the ET1 gene signature ([5]; 10 mg/kg/day vs untreated control): Ccnd1, Ppara, Agt, Map2k2 and Hoxa9 were upregulated while Grk5, Mllt3, Klf2, Pparg, Hgf, Edn1, Fos, Ptgs2, and IL-1b were downregulated | differentially expressed genes of the ET1 gene signature ([5]; 20 mg/kg/day vs untreated control): Ccdn1, Cat, Ppara, Map2k2, Hoxa9, Agt, and Egfr were upregulated while Nfatc1, Grk5, Klf2, Cav1, Pparg, Itga5, Myc, Ednra, Sell, Hgf, Mmp2, Edn1, Syk, Fos, and IL-1b were downregulated | Ednra and Ednrb gene expression ([5]; 30 mg/kg/day): downregulated | differentially expressed genes of the ET1 gene signature ([5]; 30 mg/kg/day vs untreated control): upregulated genes Ccnd1, Agt, Cat, Map2k2, Hoxa9, and Ppara and downregulated genes Ednrb, Myc, Mllt3, Hdac7, Ednra, Itga5, Grk5, Pparg, Klf2, Hgf, Mmp2, Sell, Sphk1, Fos, Syk, Edn1, and IL-1b | ET1 (End1) gene expression ([5]; all three doses (10, 20, 30 mg/kg/day)): downregulated | enrichment of hallmark gene sets (ET-1 stimulated HRMC): under-expression of hallmark gene sets

Molecule: ET-1: endothelin 1 (ET-1), used at 10 ng/mL to stimulate primary human mesangial cells (CSCSSLMDKECVYFCHLDIIW; disulfide 1-15, 3-11; ends not checked; UniProt P05305 53-73, looked up)
increase in IL-6 production ([1]; HRMCs exposed to ET-1 over 48 hours): ~6 fold | increase in IL-6 production ([1]; HRMCs exposed to ET-1 over 72 hours): ~2.2 fold
